Source: patent US20260078335A1, “MICROBIAL ENHANCED COMPOSITIONS COMPRISING SURFACTANT BLENDS WHICH OVERCOME ANTAGONISTIC SURFACTANT INCOMPATIBILITY” (Stepan Company, priority 2023, published 2026)
Where two headings read alike, the source gives them in different places.

Key:
Type in all cases: cell-based
[1] = test system: pathogenic bacteria and fungi; assay: preservative screening test, overall result
Description: (§1) A preservative screening study was performed to determine a sufficient amount of preservative to include in selected MEC formulations to provide efficacy against pathogenic bacteria and fungi. The base formulations used in the study were a formulation similar to Composition A from Example 5, but without the spores, and a formulation similar to the Example 14 formulation, but without the spores and 2-phenoxyethanol. Test formulations were prepared by adding different preservatives in different amounts to the base formulations. Each test formulation was tested for efficacy against pathogenic organisms using a preservative screening test. For the screening test, microorganisms are grown separately according to industry standards described in PCPC Test Method M-7 “A Rapid Method for Preservation Testing of Water-Miscible Personal Care Products”, and combined as an inoculum challenge prior to introduction to the formulation test sample. The inoculum is added to each test formulation for predetermined time points, and after appropriate nutrition, the test formulations are evaluated for remaining live count. Reduction of live count is calculated against a control, and a sample showing sufficient percent reduction is accepted as an effectively preserved formulation. Table 4 provides the details of the preservative and amount used in each test formulation and the results of the screen testing.

fungi = assay: preservative screening test, fungal; details: reduction of live count
Description: A preservative screening study was performed to determine a sufficient amount of preservative to include in selected MEC formulations to provide efficacy against pathogenic bacteria and fungi. […] Test formulations were prepared by adding different preservatives in different amounts to the base formulations. Each test formulation was tested for efficacy against pathogenic organisms using a preservative screening test. For the screening test, microorganisms are grown separately according to industry standards described in PCPC Test Method M-7 “A Rapid Method for Preservation Testing of Water-Miscible Personal Care Products”, and combined as an inoculum challenge prior to introduction to the formulation test sample. The inoculum is added to each test formulation for predetermined time points, and after appropriate nutrition, the test formulations are evaluated for remaining live count. Reduction of live count is calculated against a control, and a sample showing sufficient percent reduction is accepted as an effectively preserved formulation.

pathogenic bacteria = assay: preservative screening test, bacterial; details: reduction of live count
Description: as §1

[2] = test system: beneficial microorganisms; assay: compatibility with beneficial microorganisms (description, test not specified); details: stated in the description, no test details
Description: Incompatibility between a surfactant and a beneficial microorganism has been investigated in various ways, such as a standard Zone of Inhibition test, a standard agar plating test, or a standard resazurin (7-hydroxy-10-oxidophenoxazin-10-ium-3-one, sodium) (a blue fluorogenic dye) compatibility assay. In a Zone of Inhibition test, microorganisms are grown, cultured, diluted down to target levels, and then applied to a Petri dish containing agar nutrients. Test samples containing the surfactant of interest are diluted and loaded into an agar well created within the agar nutrient. The plates are incubated and microorganism growth is allowed to develop. The test sample diffuses through the agar and, if the surfactant in the test sample has an inhibitory effect on the microorganism, a lack of growth halo will be observed around the sample loaded well. This halo is referred to as the zone of inhibition. The larger the zone, the bigger the effect of inhibition. Major suitability limitations for non-antibiotics test samples for this test method are inherent large dilution of active, agar diffusion challenges, and nutrient media incompatibilities (neutralization, precipitation, etc). Although this method has been used in the medical field for antibiotics very successfully for decades, it has low suitability when testing non-antibiotic samples. In a standard agar plating test, test samples containing the surfactant of interest and microorganisms are exposed, diluted several orders of magnitude, and plated onto a nutritive agar that is incubated. After an incubation period appropriate for the species, the microorganism growth pattern is evaluated against appropriate controls. […] The test samples are incubated and then inspected for colorometric and fluorescence change. Test samples that are blue and have low fluorescence indicate no biological activity and incompatibility between the surfactant and the microorganism. Test samples that are pink and have high fluorescence indicate biological activity and compatibility of the surfactant with the microorganism. […]

Bacillus spore blend = assay: un-dyed EVOO test for germination and growth; details: 0.2 wt % active surfactant, 1×10^7 CFU/g Bacillus spore blend; 5 days shaking; FIG. 11
Description: Replicate test compositions were prepared to evaluate the ability of the alkyl sarcosinate and alkyl betaine surfactant blend to overcome the antagonistic incompatibility between each surfactant individually and the bacterial spores. The formulation for testing comprised 20 wt % sodium lauroyl sarcosinate (30% actives), 32 wt % cetyl betaine (30% actives), 3.5 wt % of a commercially available Bacillus spore blend containing 100×10^9 CFU/g Bacillus spores, 4 wt % potassium nitrate, lactic acid (88% active) to adjust the pH to 5.5-6.0, and the remainder water. The test compositions were prepared by diluting the test formulation in water to 0.3% strength, and adding 2 wt % of 3.3 g/L Nutrient Mix (3 g/L Tryptic Soy broth and 0.3 g/L Yeast Extract). Germination and growth of bacterial spores were visually evaluated using an un-dyed EVOO test. […] Growth and biological activity of the microorganism is evident from haze that develops in the test composition, which can be visually detected. […]
The test compositions were visually evaluated for germination and growth of the bacterial spores using the un-dyed EVOO test described above, except that the test compositions were photographed after 5 days of orbital-mixer shaking at setting “5”.

Bacillus spores = test system: Bacillus spores
[3] = 1.5% active, base formula Example 5, pH 6.5-7.0
[4] = 1.5% active, base formula Example 5, pH 9.0
[5] = 1.5% active, base formula Example 14, pH 9.0
[6] = 1.5% active, base formula Example 14, pH N/A
[7] = 1.0% active, base formula Example 14, pH 5.0
[8] = resazurin assay, FIG. 1, inhibitory if composition with less than 1.0 g/L surfactant remains blue, no fluorescence

Compound: OCCOc1ccccc1 [2-phenoxyethanol]
- efficacy against pathogenic bacteria and fungi ([1]; 1.5 wt %, even at a pH of 9.0, either base formulation): not sufficient
- Fungal 24 hours (fungi; [3]): <50%
- Fungal 7 days (fungi; [3]): <50%
- Fungal 24 hours (fungi; [4]): 29.3%
- Fungal 7 days (fungi; [4]): <50%
- Fungal 24 hours (fungi; [5]): 75.0%
- Fungal 7 days (fungi; [5]): 95.6%
- Fungal 7 days (fungi; [6]): <50%
- Bacterial 24 hours (pathogenic bacteria; [3]): <50%
- Bacterial 7 days (pathogenic bacteria; [3]): <50%
- Bacterial 24 hours (pathogenic bacteria; [4]): 99.4%
- Bacterial 7 days (pathogenic bacteria; [4]): >99.6%
- Bacterial 24 hours (pathogenic bacteria; [5]): 98.4%
- Bacterial 7 days (pathogenic bacteria; [5]): >99.6%
- Bacterial 7 days (pathogenic bacteria; [6]): 87.5%

Compound: O=C(O)c1ccccc1 [Benzoic Acid]
- Result [1, 7]: Pass
- Fungal 24 hours (fungi; [7]): 99.6%
- Fungal 7 days (fungi; [7]): 99.6%
- Bacterial 24 hours (pathogenic bacteria; [7]): >99.6%
- Bacterial 7 days (pathogenic bacteria; [7]): >99.6%

Compound: C=CCCCCCCCC(=O)N(C)C [STEPOSOL® MET-10U]
- compatibility with the beneficial microorganisms [2]: compatible

Compound: O.O.O=C([O-])CC(O)(CC(=O)[O-])C(=O)[O-].[Na+].[Na+].[Na+] [sodium citrate dihydrate]
- compatibility with the beneficial microorganisms [2]: compatible

Compound: O=C([O-])[C@H](O)[C@@H](O)[C@H](O)[C@H](O)CO.[Na+] [sodium gluconate]
- compatibility with the beneficial microorganisms [2]: compatible

Compound: CCCCCCCCCCCCOS(=O)(=O)[O-].[Na+] [sodium lauryl sulfate]
- germination and growth of bacterial spores (Bacillus spore blend): strong inhibition

Compound: cocoamidopropyl betaine [CAPB]
- compatibility with Bacillus spores (Bacillus spores; [8]): inhibitory

Compound: lauramine oxide
- germination and growth of bacterial spores (Bacillus spore blend): strong inhibition

Compound: lauryl alcohol with 8 moles of ethylene oxide [laureth 8EO]
- compatibility with Bacillus spores (Bacillus spores): inhibitory

Compound: sodium lauryl ether sulfate 2EO [SLES]
- compatibility with Bacillus spores (Bacillus spores; [8]): inhibitory
